Source: patent US11672798B2, “Ciprofloxacin ophthalmic topical composition for treating ocular disease” (LABORATORIOS SALVAT, S.A., priority 2021, dated 2023)

Tests used:
[1] = topical ocular administration, background statement; cited from earlier work
[2] = system: SIRC (Statens Serum Institut Rabbit Cornea, ATCC CCL-60) cells
Experimental: Permeability assays were performed in triplicate and repeated at least in three independent assays on different days. For this purpose, SIRC (Statens Serum Institut Rabbit Cornea, ATCC® CCL-60™) cells were seeded in sterile 6-well microfilter plates and maintained in culture until confluence. SIRC cells were cultured in Eagle's Minimum Essential Medium (EMEM) supplemented with 10% foetal bovine serum (FBS) and with 1% of penicillin-streptomycin solution at 37° C. and 10% CO2 in air. Ciprofloxacin was dissolved in dimethyl sulfoxide (DMSO) to prepare a concentrated stock solution which was further diluted in culture medium to obtain a final concentration of 20 μg/ml.
The cells were treated with ciprofloxacin alone or in combination with the different concentrations of each corticosteroid for 15 minutes. After the incubation period, the culture medium was removed, and the cells were harvested by trypsinization and centrifuged at 980 g for 5 min at 4° C. The cellular pellet was washed with saline solution to remove possible traces of residual extracellular compounds, centrifuged, and preserved at −80° C. for further analysis.
Intracellular ciprofloxacin was quantified by ultra-high-performance liquid chromatography coupled to tandem mass spectrometry (UHPLC-MS/MS). […] Transition monitored for ciprofloxacin was m/z 332.2→288.2, with cone voltage 35 V and collision energy 20 eV.

dose dependence of the penetration enhancing effect on ciprofloxacin [2] | SMILES | fraction of topically instilled drug absorbed into the ocular tissue [1]
 | O=C(O)c1cn(C2CC2)c2cc(N3CCNCC3)c(F)cc2c1=O [ciprofloxacin, Ciprofloxacin] | around 1%
dose-dependent | CC1(C)O[C@@H]2C[C@H]3[C@@H]4C[C@H](F)C5=CC(=O)C=C[C@]5(C)[C@@]4(F)[C@@H](O)C[C@]3(C)[C@]2(C(=O)CO)O1 [fluocinolone acetonide, Fluocinolone acetonide] | 
